Experimental data as given in patent publication US7414068B2, “Benzopyran derivatives substituted with secondary amines including tetrazole, method for the preparation thereof and pharmaceutical compositions containing them” (Dongbu Hannong Chemical Co., Ltd., priority 2002, dated 2008).

Assays:
[1] = Acute oral toxicity test in rats; conditions: SD, rat, in vivo, single oral dose, suspended in 0.5% methyl cellulose, read-out: lethal dose (LD50) for oral administration
Description: In this test, six-week old SPF SD rats were used with two rats assigned to each group. Each group was consisted of two rats. The compounds prepared in example 1, 7, 11, 17, 22, 24, 26, 28, 30, 32, 34, 42, 52, 54, 55, 56, 57, 59, 60, 61, 70, 75, 77, 79, 81, 83, 85, and 89 were suspended in 0.5% methyl cellulose, respectively. […] Also, hematological test and biochemical analysis were accomplished. After sacrificing the animals, autopsy was performed for macroscopic observations of the organs and tissues. As a result, there was no significant changes in clinical symptoms, body weight and mortalities. Also in hematology, serum chemistry parameters, macroscopic observation and drug-related changes were not observed.

[2] = system: isolated ischemic rat heart; assay: Cardioprotective effect in ischemic heart models of rats (Langendorff); conditions: 10 μM
Description: Male rats (300˜450 g, obtained form the experimental animal team of the Korea Research Institute of Chemical Technology) were anaesthetized by the intra-peritoneal injection of sodium pentobarbital at a dose of 100 mg/kg. Heparin (1,000 U/kg) was injected to the tail vein and then the heart was enucleated. Particularly, cannula (PE 240) was inserted to the organ. Rats were mechanically ventilated with a rodent ventilator, in situ aorta cannula was inserted into their aorta. In retorograde perfusion, their hearts were enucleated, then just hung onto Langendorff Apparatus. Tissue attached at the heart was removed. Heart was perfused in oxygenated modified Krebs-Henseleit bicarbonate buffer (composition<mM/L>116 NaCl, 4.7 KCl, 1.1 MgSO4, 1.17 KH2PO4, 24.9 NaHCO3, 2.52 CaCl2, 8.32 Glucose, 2.0 Pyruvate) at a constant perfusion pressure (85 mmHg). A metal cannula attached to latex balloon filled with solvent (ethanol: water=1:1 (v/v)) was placed in the left ventricle through pulmonary vein and connected to a isovolumetric pressure transducer (H.S.E., Germany) for measurement of left ventricular pressure (LVP). The hearts were allowed to equilibrate for 15 min, at which time left ventricular end-diastolic pressure (EDP) was adjusted to 5 mmHg and this balloon volume was maintained throughout the experiment.
Baseline cardiac contractile function, heart rate (HR), and coronary flow (CF) were measured. Cardiac contractile function was calculated by […], yielding LVDP (left ventricular developed pressure). Double product RPP (rate-pressure product) (DP), another important parameter for indirectly assessing cardiac performance in Langendorff heart impossible to measure cardiac output was calculated by multiplying HR by LVDP.
Throughout the experiment, total coronary blood flow was measured by the use of coronary flow probe (diameter: 1.0 mm) installed in aortic cannula with electromagnetic flowmeter. Temperature of heart was steadily maintained by immersing the heart at 37° C. in physiological saline solution to which 95% O2/5% CO2 was constantly supplied. After stabilization for 15 min, the hearts were pre-treated for 10 min in vehicle (0.04% DMSO) or mixture containing the compound of the present invention or control material. Thereafter, cardiac contractile function, HR and CF were repeatedly measured. Global ischemia was induced by completely shutting off the perfusate for 30 min. Severity of ischemia was determined as the time to contracture (TTC, min) during global ischemia in which the first 5 mmHg increase in EDP was observed. Then, the hearts were reperfused and, 30 min later, contractile functions (LVDP, HR and CF) was repeatedly measured. After reperfusion was accomplished for 30 min, LDH (lactate dehydrogenase) was measured as a sensitive index for loss of cell viability with a kit.

[3] = system: cortical neuron cells; assay: Protective effect on iron-induced neuronal cell injury (LDH release); assay type: cell-based; conditions: FeSO4 50 μM; for protective effect on neuron cell: Inhibition (%, 30 μM compound addition): LDH reduction vs control; for IC50: LDH
Description: From the brains of 17˜18 day-old embryos, cortical neuron cells were isolated and then, cultured at 37° C. for 7˜9 days in a 5% CO2 incubator. The said cortical cell cultures were washed twice with MEM (Minimum essential medium) to reduce the serum level to 0.2%. […] Then, the compound of the said concentration was pre-treated for 30 min, respectively. For the experiment, test compound was dissolved in DMSO and diluted in a medium. At this time, the final concentration of DMSO was not allowed to exceed 0.1%. For control group, only vehicle was applied.
After the said pre-treatment, FeSO4 was added to the medium for a final concentration to be 50 μM. The medium was cultured in CO2 incubator for 24 hours. During the incubation, lactate dehydrogenase (LDH) was released by iron. The serum level of lactate dehydrogenase released into the medium was measured to assess necrosis of neuronal cell by the oxidative toxicity of iron. The protective effect on neuron cells of the test compounds was evaluated by calculating the LDH reduction rate of treatment-group compared with that of the control group.

[4] = system: isolated rat aorta; assay: Vasodilating effect on blood vessel excised from rats (methoxamine-constricted aorta); conditions: isolated rat aorta constricted with methoxamine (3 μM); read-out: Concentration for inhibition of constriction induced by methoxamine in rat arota (IC50)
Text: Rats (350˜450 g, obtained from the Experimental Animal Team of the Korea Research Institute of Chemical Technology) were knocked to be unconscious by hitting the occipital region, sacrificed by cervical dislocation, and underwent thoracotomy. After being quickly removed, the thoracic aorta was deprived of the adipose tissue and cut into aortic rings of 3 mm width. The aorta was lightly rubbed with cotton club soaked in a modified Krebs Henseleit buffer (Physiological salt solution) to remove the inner epithelial layer therefrom. While being hung in an organ bath containing a physiological buffer, the vascular smooth muscle was allowed to equilibrate under a resting tension of 2 g and then, stand for 1 hour at 37° C. for stabilization, supplying a carbogen consisting of 95% O2˜5% CO2.
Thereafter, the vascular smooth muscle was constricted with 10^−5M phenylephrine and washed several times with physiological saline solution. The said procedure was repeated again to ensure the stable reactivity of vascular smooth muscle to repetitive constriction/relaxation.
Thereafter, 3×10^−6 M methoxamine was applied to induce an intensive constriction in the vascular smooth muscle. When the vasoconstriction induced by the methoxamine was reached and maintained to a maximum, test compounds and control material was cumulatively added to the organ bath in concentration of 1, 3, 10 and 30 μM, respectively, to examine the vasodilating effect. Cromakalim, BMS-180448 (the compound of formula 4) and BMS-191095 (the compound of formula 5), known to be the first generation KATP opener with potent vasodilating effect were used as control materials.
The change rate of constriction by the addition of the drugs compared to the maximal constriction induced by methoxamine was calculated to plot a concentration-relaxation response curve. Through a least linear regression analysis, IC50 that the drug concentration at which the vascular tissue is relaxed to 50% extent of the maximal constriction, was obtained for each drug.

[5] = system: brain homogenate; assay: Inhibitory effect against lipid peroxidation by iron (MDA quantification); assay type: biochemical, rat; conditions: 100 μM compound, FeCl2 400 μM, 37° C. 30 min
Description: The rat brain was homogenized in a Krebs buffer (15 mM HEPES, 10 mM glucose, 140 mM NaCl, 3.6 mM KCl, 1.5 mM CaCl2, 1.4 mM KH2PO4, 0.7 mM MgCl2, PH 7.4) and the supernatant separated by centrifugation at 12,000 rpm for 10 min was used for further experiments. FeCl2 was added for the final concentration to be 400 μM. Then the brain homogenate was allowed to stand at 37° C. for 30 min for the facilitation of oxidation. Each of the test compounds was added at a concentration of 100 μM. For control group, only vehicle was applied.
Iron facilitates the oxidation of the said brain homogenate to produce malondialdehyde (MDA), lipid peroxidation product. Thus, the lipid peroxidation was determined by MDA quantification. The inhibitory effect against lipid peroxidation of the test compounds was evaluated by calculating MDA reduction rate of the test compounds compared with that of the control group.
Typically, the MDA quantification is achieved by reacting samples with 2-thiobarbituric acid (TBA) and measuring the absorbance at 530 nm. However, this method is unsuitable to treat samples on a large scale because of a boiling step. Thus, in this experiment, N-methyl-2-phenylindole was used instead of TBA.

Row | Compound | LD50 [1] | EDP (mmHg) ([2]; after 30 min global ischemia and reperfusion) | LDH (u/g) ([2]; reperfusion LDH release) | LVDP X HR (%) ([2]; reperfusion, % of pre-treatment DP) | TTC ([2]; time to contracture during global ischemia) | protective effect on neuron cell: Inhibition (%, 30 μM compound addition) ([3]; 24 hours) | IC50 ([3]; Cortical neurone, 24 h) | IC50 [4] | inhibitory effect against lipid peroxidation induced by iron (%, 100 μM) [5] | IC50 ([3]; 24 hours)
1 | COC(OC)[C@@]1(C)Oc2ccc([N+](=O)[O-])cc2[C@@H](N(Cc2nnn(C)n2)c2ccc(Cl)cc2)[C@@H]1O [Example 1, (2S,3S,4R)-6-nitro-4-[N-(4-chlorophenyl)-N-(2-methyl-2H-tetrazol-5-ylmethyl)amino]-3-hydroxy-2-methyl-2-dimethoxymethyl-3,4-dihydro-2H-1-benzopyran] | > 2000 mg/kg | 29.3 mmHg | 15.2 u/g | 46.8% | 24.8 min | 71% | 18.1 µM | 7.14 µM | – | –
2 | COC(OC)[C@@]1(C)Oc2ccc(N)cc2[C@H](N(Cc2nnn(C)n2)c2ccc(Cl)cc2C)[C@H]1O [Example 42, (2S,3R,4S)-6-amino-4-[N-(2-methyl-4-chlorophenyl)-N-(2-methyl-2H-tetrazol-5-ylmethyl)amino]-3-hydroxy-2-methyl-2-dimethoxymethyl-3,4-dihydro-2H-1-benzopyran] | > 2000 mg/kg | – | – | – | – | 103% | 2.6 µM | – | 85% | –
3 | COC(OC)[C@@]1(C)Oc2ccc(N)cc2[C@H](N(Cc2nnn(C)n2)c2ccccc2C(C)C)[C@H]1O [Example 52, (2S,3R,4S)-6-amino-4-[N-(2-isopropylphenyl)-N-(2-methyl-2H-tetrazol-5-ylmethyl)amino]-3-hydroxy-2-methyl-2-dimethoxymethyl-3,4-dihydro-2H-1-benzopyran] | > 2000 mg/kg | – | – | – | – | 91% | 3 µM | – | 88% | –
4 | CCOC(=O)c1ccc(N(Cc2nnn(C)n2)[C@H]2c3cc(N)ccc3O[C@](C)(C(OC)OC)[C@@H]2O)cc1 [Example 54, (2S,3R,4S)-6-amino-4-[N-(4-ethoxycarbonylphenyl)-N-(2-methyl-2H-tetrazol-5-ylmethyl)amino]-3-hydroxy-2-methyl-2-dimethoxymethyl-3,4-dihydro-2H-1-benzopyran] | > 2000 mg/kg | – | – | – | – | 98% | < 2 µM | – | 87% | 1.5 µM
5 | COC(OC)[C@@]1(C)Oc2ccc(N)cc2[C@H](N(Cc2nnn(C)n2)c2ccc(F)cc2)[C@H]1O [Example 56, (2S,3R,4S)-6-amino-4-[N-(4-fluorophenyl)-N-(2-methyl-2H-tetrazol-5-ylmethyl)amino]-3-hydroxy-2-methyl-2-dimethoxymethyl-3,4-dihydro-2H-1-benzopyran] | > 2000 mg/kg | – | – | – | – | 100% | 5.3 µM | – | 76% | –
6 | COC(=O)c1cccc(N(Cc2nnn(C)n2)[C@H]2c3cc(N)ccc3O[C@](C)(C(OC)OC)[C@@H]2O)c1 [Example 59] | > 2000 mg/kg | – | – | – | – | 77% | < 2 µM | – | 70% | 1.8 µM
7 | COC(OC)[C@@]1(C)Oc2ccc([N+](=O)[O-])cc2[C@H](N(Cc2nnn(C)n2)c2ccc(O)cc2C)[C@H]1O [Example 64, (2S,3R,4S)-6-nitro-4-[N-(2-methyl-4-hydroxyphenyl)-N-(2-methyl-2H-tetrazol-5-ylmethyl)amino]-3-hydroxy-2-methyl-2-dimethoxymethyl-3,4-dihydro-2H-1-benzopyran] | – | – | – | – | – | – | – | – | 79% | –
8 | COC(OC)[C@@]1(C)Oc2ccc(N)cc2[C@@H](N(Cc2nnn(C)n2)c2ccc(Cl)cc2)[C@@H]1OC(C)=O [Example 89, (2S,3S,4R)-6-amino-4-[N-(4-chlorophenyl)-N-(2-methyl-2H-tetrazol-5-ylmethyl)amino]-3-acetoxy-2-methyl-2-dimethoxymethyl-3,4-dihydro-2H-1-benzopyran] | > 2000 mg/kg | – | – | – | – | – | – | – | 81% | –
